Test results taken from paper PMC6145916, “Interaction of mitochondrial fission factor with dynamin related protein 1 governs physiological mitochondrial function in vivo” (Scientific Reports, 2018).
Where no end group is shown, it is not given here.

Tests used:
[1] = system: primary cortical neurons; test: Mitochondrial membrane potential (TMRM), primary cortical neurons; type: cell-based, rat; conditions: overnight treatment; n = 3, with 3 replicates
Description: Bottom, quantification of the form factor (degree of branching) and aspect ratio (major/minor axis length). At least 10,000 mitochondrial fragments were analyzed for each condition. Mitochondrial reactive oxygen species production (MitoSox Red) (b) and membrane potential (TMRM) (c) after overnight treatment with indicated concentrations of peptide (n = 3, with 3 replicates). […] Overlay of live microscopy imaging at time 0 (green) and 150 (red) seconds. […] An estimation of the % mobile mitochondria from the Pearson coefficient of each set of images. Data are mean ± s.e.
Following treatment, cells were washed with treatment media.
The Cy5 filter was used to autofocus on the mitochondria plane. Nuclei were imaged with a DAPI filter and the mitoROS (MitoSox) or membrane potential (TMRM) image was acquired with a TRITC filter. […] MitoROS was calculated as the average MitoSox signal per cell. The mitochondrial membrane potential was calculated as the average TMRM signal in the mitochondrial mask.
Mitochondrial reactive oxygen species determination […]
and 1% penicillin-streptomycin solution (Corning, NY, USA). Primary cortical neurons were treated with increasing concentrations of peptides in NbActiv1 media. HD Patient- and adult- […]
and without phenol red. […] After incubation
HEPES, and without phenol red. […]
calculated as the average MitoSox signal per cell. […]

[2] = system: HD R6/2 model mice; test: Survival of R6/2 Huntington's mice; type: in vivo, mouse; conditions: 3 mg/Kg/day, continuous subcutaneous osmotic pump, 8 weeks, vs TAT; 15 mice per group
Source text: (a) Quantification of mitochondrial Drp1 content relative to ALDH2 (a mitochondrial matrix enzyme) in the mitochondrial fraction isolated from total brain lysate of wild-type mice (Western blot shown in Fig. S3B) (n = 4 mice). (b) ATP content in brain tissue of wild-type mice (n = 4 mice, 2 replicates). (c) Representative transmission electron microscopy images of the striatum from wild-type mice. […] The first principal component represents 42% of the variation. (f) Local linear embedding dimensionality reduction and visualization of all behaviors collected weekly from TAT- (black) or P259- (purple) treated WT and TAT- (white) treated R6/2 mice over the course of 8 weeks. […] All behavior and survival tests were conducted by an experienced observer who was blinded to the treatment groups. Data are mean ± s.e.
Five-week old R6/2 HD mice and their wild-type littermates (a total of 60 mice) were implanted subcutaneously with a 28-d Alzet osmotic pump with either P259-TAT or TAT control peptide (15 mice per group) to be delivered continuously at a rate of 3 mg/Kg/day, as previously described. All mice were implanted twice for a total of an 8-week treatment. 20 of the WT mice were implanted 3 times for a total of a 12-week treatment at 3 mg/Kg/day. […]
To quantify mitochondrial motility, the images at time 0 and 150 seconds w ere overlaid. […]

YGRKKRRQRRRGSGIIQLPEIVVV-NH2 (C-terminus assumed) [P259]
mitochondrial membrane potential [1]: decreased membrane potential | survival of HD R6/2 mice [2]: further decline in survival
